Paper PMC6721765, “Synthesis of Daidzein Glycosides, α-Tocopherol Glycosides, Hesperetin Glycosides by Bioconversion and Their Potential for Anti-Allergic Functional-Foods and Cosmetics” (Molecules, 2019)
Read-outs that look alike come from different tables or passages of the source.

What was measured:
[1] = target: Mushroom tyrosinase (EC 1.14.18.1); assay: Tyrosinase assay (dopachrome formation at 475 nm); assay type: biochemical; details: L-DOPA or L-tyrosine as substrate, pH 6.8, 30 °C, mean ± standard deviation from triplicate experiments, read-out: Tyrosinase Inhibitory Activity IC50
Method: Mushroom tyrosinase (EC 1.14.18.1) (Sigma-Aldrich Chemical Co., St. Louis, MO, USA) was used for the tyrosinase assay, with either L-DOPA or L-tyrosine as a substrate. In spectrophotometric experiments, enzyme activity was taken as the initial velocity (Vi) monitored by observing dopachrome formation at 475 nm with a UV spectrophotometer at 30 °C. All samples were dissolved in ethanol at 10 mM. First, 200 μL of a 2.7 mM L-tyrosine or 5.4 mM L-DOPA aqueous solution was mixed with 2687 μL of 0.25 M phosphate buffer (pH 6.8). Next, 100 μL of the sample solution and 13 μL of the same phosphate buffer solution containing mushroom tyrosinase (144 units) were added to the mixture.

[2] = test system: rat peritoneal mast cells; assay: Inhibition of compound 48/80-induced histamine release from rat peritoneal mast cells; assay type: cell-based; details: Mast cell
Method: The %inhibition of hesperetin 3′-β-glucoside (9) and hesperetin 7-β-glucoside (10) was higher than that of hesperetin (8). […] The inhibitory activity toward histamine release of hesperetin 7-β-gentiobioside (12) was stronger than hesperetin diglucoside 11. The anti-allergic activities were examined at pH 7.4 and 37 °C according to the reported methods. The pH and temperature of the reaction mixture may have an effect on anti-allergic activities. Effects of pH and temperature on anti-allergic activities of the obtained glycosides should be investigated and reported on in the near future.
The effects of daidzein, α-tocopherol, hesperetin, and their glycosides on compound 48/80-induced histamine release from rat peritoneal mast cells were examined as follows. Peritoneal mast cells were collected from the abdominal cavities of rats (Male Wistar rats, Nippon SLC) and purified to a level higher than 95%. The purified mast cells were suspended in a physiological buffered solution (PBS) containing 145 mM NaCl, 2.7 mM KCl, 1.0 mM CaCl2, 5.6 mM glucose, and 20 mM 4-(2-hydroxyethyl)-1-piperazineethanesulfonic acid (HEPES) (pH 7.4) to give approximately 10^4 mast cells/mL. Cell viability was always greater than 90% as judged by the trypan blue exclusion test. Mast cells were preincubated with the test compound (1 μM) for 15 min at 37 °C, and subsequently exposed to compound 48/80 at 0.35 μg/mL. Histamine release was determined by a fluorometric assay, and was expressed as a percentage of total histamine.

[3] = test compound 1 μM, preincubated 15 min at 37 °C, pH 7.4, compound 48/80 at 0.35 μg/mL, Male Wistar rat peritoneal mast cells, read-out: Histamine Release-Inhibiting Activity / %inhibition
[4] = Rattus norvegicus, pH 7.4, read-out: Histamine Release-Inhibiting Activity / %inhibition

| Compound | IC50 [1] [µM] | inhibition at 1 µM [2, 3] [%] | inhibition at 1 µM [2, 4] [%] |
| --- | --- | --- | --- |
| O=c1c(-c2ccc(O)cc2)coc2cc(O)ccc12 [Compound 1, daidzein] | 392 ± 88 | 58 | – |
| O=c1c(-c2ccc(O)cc2)coc2cc(OC3OC(CO)C(O)C(O)C3O)ccc12 (stereo not drawn) [Compound 2, daidzein 7-β-glucoside] | 303 ± 45 | – | 62 |
| O=c1c(-c2ccc(O)cc2)coc2cc(OC3OC(COC4OC(CO)C(O)C(O)C4O)C(O)C(O)C3O)ccc12 (stereo not drawn) [Compound 3, daidzein 7-β-gentiobioside] | 280 ± 33 | 67 | – |
| O=c1c(-c2ccc(O[C@@H]3O[C@H](CO)[C@H](O)[C@H](O)[C@H]3O)cc2)coc2cc(O)ccc12 [Compound 4, daidzein 4′-β-galactoside] | 125 ± 41 | 70 | – |
| O=c1c(-c2ccc(O)cc2)coc2cc(O[C@@H]3O[C@H](CO)[C@H](O)[C@H](O)[C@H]3O)ccc12 [Compound 5, daidzein 7-β-galactoside] | 102 ± 39 | – | 76 |
| Cc1c(C)c2c(c(C)c1O)CC[C@@](C)(CCC[C@H](C)CCC[C@H](C)CCCC(C)C)O2 [Compound 6, α-tocopherol] | 510 ± 108 | 61 | – |
| Cc1c(C)c2c(c(C)c1O[C@@H]1O[C@H](CO)[C@H](O)[C@H](O)[C@H]1O)CC[C@@](C)(CCC[C@H](C)CCC[C@H](C)CCCC(C)C)O2 [Compound 7, α-tocopherol 6-β-galactoside] | 54 ± 25 | 82 | – |
| COc1ccc([C@@H]2CC(=O)c3c(O)cc(O)cc3O2)cc1O [Compound 8, hesperetin] | 437 ± 76 | 38 | – |
| COc1ccc(C2CC(=O)c3c(O)cc(O)cc3O2)cc1OC1OC(CO)C(O)C(O)C1O (stereo not drawn) [Compound 9, hesperetin 3′-β-glucoside] | 355 ± 32 | 40 | – |
| COc1ccc(C2CC(=O)c3c(O)cc(OC4OC(CO)C(O)C(O)C4O)cc3O2)cc1O (stereo not drawn) [Compound 10, hesperetin 7-β-glucoside] | 318 ± 27 | 45 | – |
| COc1ccc(C2CC(=O)c3c(O)cc(OC4OC(CO)C(O)C(O)C4O)cc3O2)cc1OC1OC(CO)C(O)C(O)C1O (stereo not drawn) [Compound 11, hesperetin 3′,7-β-diglucoside] | 176 ± 35 | 63 | – |
| COc1ccc(C2CC(=O)c3c(O)cc(OC4OC(COC5OC(CO)C(O)C(O)C5O)C(O)C(O)C4O)cc3O2)cc1O (stereo not drawn) [Compound 12, hesperetin 7-β-gentiobioside] | 139 ± 14 | 69 | – |
| O=c1c(O)c(-c2ccc(O)cc2)oc2cc(O)cc(O)c12 [Kaempferol, reference compound] | – | 80 | – |
